Data as given in patent publication US5045566A, “Novel imidate insecticides” (ICI Americas Inc., priority 1989, dated 1991).

How the values were obtained:
Format in all cases: in vivo
[1] = tested on: Housefly [Musca domestica]; experiment: Housefly contact mortality in dishes (HF), 48 hours; conditions: μg of test compound per 25 female flies
Summary of the method: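 LC50 (μg compound per 25 female flies) derives from dosage-mortality curves of 48 h kill. Flies, females 1-2 days old, were held 25 per cage over a dish coated with dried acetone deposit, starting at 100 μg per cage and descending.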

[2] = tested on: Black Bean Aphid [Aphis fabae (Scop.)]; experiment: Black bean aphid spray test on nasturtium (BBA), 48 hours; conditions: percent of test compound in sprayed solution
Summary of the method: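 LC50, given as percent test compound in the sprayed liquid, was calculated from dosage-mortality curves using concentrations from 0.05% downward. Sprays in 50:50 acetone-water went to runoff on ~5 cm nasturtiums carrying 25-50 aphids of mixed ages, one day after infestation. Deaths were counted 48 h later under greenhouse conditions.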

[3] = tested on: Cabbage Looper [Trichoplusia ni (Hubner)]; experiment: Cabbage looper leaf dip (CL), 3-5 days; conditions: percent in solution, second-instar larvae
Summary of the method: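 Squash cotyledons dipped in test solution (acetone-water 50-50, ≤0.1%), dried, offered to 5 second-instar larvae; mortality after 3-5 days gives LC50.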

[4] = tested on: Aster Leafhopper [Macrosteles fascifrens (Stal)]; experiment: Aster leafhopper on dipped oat seedlings (LH), 48 hours; conditions: percent in solution, adults/nymphs
Description: The compounds in Tables 1 and 2 above were tested for insecticidal activity using the following testing procedures. LC50 values, based on the results of these tests and calculated according to dosage-mortality curves, are expressed in Table 3.
Aster Leafhopper [Macrosteles fascifrens (Stal)]
Oat seedlings (Avena sp) were grown in a commercial potting soil in cups. When the plants were approximately 10 cm tall they were thinned to three plants per cup and dipped for 2-3 seconds in 50-50 acetone-water solutions of the test compounds. When the plants had dried, a clear plastic tube was placed over them and the bottom end pressed into the cup. Ten aster leafhopper adults/nymphs were then placed in each tube and the tops of the tubes covered with white organdy cloth. Mortality counts were made after 48 hours. Test concentrations ranged from 0.05% down to that at which 50% mortality occurred. The LC50 values are expressed below in Table 3 under the heading "LH" in terms of the percent of the test compound in the solution.

[5] = tested on: Maize weevil [Sitophilus zeamais (Motschulsky)]; experiment: Maize weevil on dipped corn seeds (MW), 48 hours; conditions: percent in solution, adult weevils
Summary of the method: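 LC50, given as percent of compound in dipping solution, comes from dosage-mortality curves over concentrations descending from 0.01%. Four corn seeds soaked 2-3 s in 50:50 acetone:water solution were dried and held with 10 adult weevils, about 25° C, mortality read after 48 h.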

[6] = tested on: Tobacco Budworm [Heliothis virescens (Fabricius)] eggs; experiment: Tobacco budworm eggs (TBW-E); conditions: percent in solution; 2-day old eggs
Summary of the method: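 Step 1: dip 2-day old egg patches in acetone test solutions (top concentration 0.1%). Step 2: hold in dishes with rearing medium at 78° F. Step 3: record mortality after control hatch and feeding.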

SMILES	LC50 HF [1]	LC50 BBA [2]	LC50 CL [3]	LC50 LH [4]	LC50 MW [5]	LC50 TBW E (eggs) [6]
CC1(C(=Nc2ccc(Cl)cc2)OCc2cccc(Oc3ccccc3)c2)CC1 [Compound 5]	21 µg	0.001%	0.005%	> 0.05%	> 0.01%	–
C=C(C)C(=Nc1ccc(Cl)cc1)OCc1cccc(Oc2ccccc2)c1 [Compound 6]	17 µg	0.001%	0.02%	> 0.05%	> 0.01%	0.015%
FC(F)(F)C(=Nc1ccc(Cl)cc1)OCc1cccc(Oc2ccccc2)c1 [Compound 35]	15 µg	–	0.008%	> 0.05%	> 0.01%	0.03%
Cc1ccc(N=C(OCc2cccc(Oc3ccccc3)c2)C(C)C)cc1Cl [Compound 90]	> 100 µg	0.0003%	> 0.1%	0.001%	–	0.016%
COc1c(Cl)cc(N=C(OCc2cccc(Oc3ccccc3)c2)C(C)C)cc1Cl [Compound 91]	37 µg	0.001%	0.002%	0.003%	–	> 0.01%
CC(C)C(=Nc1c(Cl)cc([N+](=O)[O-])cc1Cl)OCc1cccc(Oc2ccccc2)c1 [Compound 92]	> 100 µg	> 0.05%	0.015%	> 0.05%	–	> 0.1%
Clc1ccc(N=C(OCc2cccc(Oc3ccccc3)c2)C(Cl)Cl)c2ccccc12 [Compound 98]	> 100 µg	> 0.05%	0.016%	> 0.05%	–	0.1%
Cc1c(Cl)cc(N=C(OCc2cccc(Oc3ccccc3)c2)C(C)C)cc1Cl [Compound 101]	81 µg	0.002%	0.0045%	0.0008%	–	> 0.1%
CCOC(=O)c1cc(N=C(OCc2cccc(Oc3ccccc3)c2)C(C)C)ccc1Cl [Compound 102]	> 100 µg	0.05%	0.075%	> 0.05%	–	> 0.1%
CC(C)(Cl)C(=Nc1ccc(C#N)c(Cl)c1)OCc1cccc(Oc2ccccc2)c1 [Compound 108]	44 µg	0.01%	0.002%	> 0.01%	–	> 0.1%
CC(C)C(=Nc1c(F)cc(F)cc1Br)OCc1cccc(Oc2ccccc2)c1 [Compound 129]	> 100 µg	0.03%	0.005%	0.01%	–	> 0.1%
CC(C)C(=Nc1ccc(Br)cc1)OCc1cccc(Oc2ccccc2)c1 [Compound 131]	17 µg	0.003%	0.0045%	0.005%	–	> 0.1%
CC(C)(C)C(=Nc1ccc(Br)cc1)OCc1cccc(Oc2ccccc2)c1 [Compound 135]	> 100 µg	> 0.05%	0.004%	> 0.05%	–	> 0.1%
CC(C)C(=Nc1ccc(I)cc1)OCc1cccc(Oc2ccccc2)c1 [Compound 137]	18 µg	0.03%	0.003%	0.008%	–	0.04%
CCc1cccc(N=C(OCc2cccc(Oc3ccccc3)c2)C(C)C)c1 [Compound 154]	25 µg	0.002%	0.004%	> 0.05%	–	0.1%
CCc1ccc(N=C(OCc2cccc(Oc3ccc(F)cc3)c2)C(C)C)cc1 [Compound 159]	25 µg	0.001%	0.001%	0.0025%	–	0.08%

SMILES	LC50 HF [1]	LC50 BBA [2]	LC50 CL [3]	LC50 LH [4]	LC50 MW [5]	LC50 TBW E (eggs) [6]
CCc1ccc(N=C(OCc2cccc(Oc3ccccc3)c2)C(C)C)cc1 [Compound 161]	15 µg	0.0006%	0.0014%	0.002%	–	0.07%
CCc1cccc(N=C(OCc2cccc(Oc3ccccc3)c2)C(C)(C)C)c1 [Compound 162]	> 100 µg	> 0.05%	0.035%	> 0.05%	–	> 0.1%
CC(C)C(=Nc1ccc2c(c1)CCC2)OCc1cccc(Oc2ccccc2)c1 [Compound 187]	15 µg	0.001%	0.0025%	0.0025%	–	> 0.1%
CC(C)C(=Nc1ccc(Cl)cc1)OCc1cccc(Oc2ccc(F)cc2)c1 [Compound 189]	17 µg	–	0.00027%	0.002%	> 0.01%	0.07%
CC(C)C(=Nc1ccc(Cl)c(C(F)(F)F)c1)OCc1cccc(Oc2ccc(F)cc2)c1 [Compound 193]	100 µg	–	0.00075%	0.001%	> 0.01%	> 0.1%
Cc1ccc(Oc2cccc(COC(=Nc3ccc(F)c(Cl)c3)C(C)C)c2)cc1 [Compound 225]	> 100 µg	0.006%	0.0025%	> 0.05%	–	> 0.1%
CC(C)C(=Nc1ccc(C(C)C)cc1)OCc1cccc(Oc2ccc(F)cc2)c1 [Compound 228]	> 100 µg	0.01%	0.0025%	> 0.05%	–	> 0.1%
CC(C)C(=Nc1ccc2c(c1)OC(C)(C)O2)OCc1ccc(F)c(Oc2ccccc2)c1 [Compound 242]	< 100 µg	< 0.05%	0.00025%	> 0.05%	–	> 0.1%
CSc1ccc(Oc2cccc(COC(=Nc3ccc(F)cc3)C(C)C)c2)cc1 [Compound 257]	> 100 µg	0.05%	0.008%	> 0.05%	–	> 0.1%
Fc1ccc(Oc2cccc(COC(=Nc3ccc(F)c(Cl)c3)C(F)(F)C(F)(F)F)c2)cc1 [Compound 258]	> 100 µg	0.01%	0.003%	> 0.05%	–	> 0.1%
CC(C)C(=Nc1ccc(Cl)cc1)OC(C)c1cccc(Oc2ccccc2)c1 (centres unmarked) [Compound 457]	> 100 µg	> 0.05%	0.009%	> 0.05%	–	> 0.05%
CC(C)C(=Nc1ccc2c(c1)OCO2)OCc1cccc(Oc2ccc(Cl)cc2)n1 [Compound 466]	13 µg	–	0.0008%	> 0.05%	0.01%	> 0.1%
COCc1c(F)c(F)c(COC(=Nc2ccc(F)c(Cl)c2F)C(C)C)c(F)c1F [Compound 522]	–	0.002%	> 0.1%	0.05%	> 0.01%	> 0.1%
CC(C)C(=Nc1cccc(C(F)(F)F)c1)OCc1cc(Oc2ccc(F)cc2)ccn1 [Compound 528]	–	> 0.05%	0.0075%	> 0.05%	> 0.01%	> 0.1%
CC(C)C(=Nc1ccc(F)c(Cl)c1)OCc1cc(Oc2ccc(F)cc2)ccn1 [Compound 529]	–	> 0.05%	> 0.0025%	> 0.05%	> 0.01%	> 0.1%
CC(C)C(=Nc1ccc(OC(F)(F)F)cc1)OCc1cccc(Cc2ccccc2)c1 [Compound 538]	75 µg	–	> 0.1%	> 0.05%	> 0.01%	> 0.1%
